# Source: publication PMC8159961, “Exploring protein hotspots by optimized fragment pharmacophores” (Nature Communications, 2021)
# “And” between values parts separate entries of the source, which are not always exact repeats. Identical values can stand only once. “Also recorded” adds a separate entry of the source. Like-named read-outs stand apart in the source and are kept apart here.
# Legend:
# [1] = tested on: MOLM-13 leukemia cells; assay: Cell viability assay, CellTiter-Glo, 5 days; details: for normalized viability (0 = 0 % viability, 1 = 100 % viability): MOLM-13, nM], replicates
# [2] = target: T1, recombinant SETD2 (Homo sapiens, UniProt Q9BYW2); assay: SETD2 Chemiluminescence assay (H3K36 tri-methylation); assay type: biochemical; details: for SETD2 signal normalised to positive control and internally to compound: nM], replicates
# T1 construct: purchased BPS Bioscience 52060
# T1 sequence (Q9BYW2 1418-1714 limits assumed): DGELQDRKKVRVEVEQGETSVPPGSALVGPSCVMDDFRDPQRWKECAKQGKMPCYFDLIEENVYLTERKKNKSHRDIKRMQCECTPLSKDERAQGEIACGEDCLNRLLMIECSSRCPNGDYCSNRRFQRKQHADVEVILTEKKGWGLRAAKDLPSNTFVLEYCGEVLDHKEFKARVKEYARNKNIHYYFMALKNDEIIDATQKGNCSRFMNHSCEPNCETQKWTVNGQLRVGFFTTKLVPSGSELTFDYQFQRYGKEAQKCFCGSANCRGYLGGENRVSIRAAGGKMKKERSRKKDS
# [3] = tested on: MV4-11 leukemia cells; assay: Cell viability assay, CellTiter-Glo, 5 days; details: for normalized viability (0 = 0 % viability, 1 = 100 % viability): MV4-11, nM], replicates
# [4] = target: T2, human 5-HT1A receptor (Homo sapiens, UniProt P08908); assay: GPCR radioligand binding assay, [3H]-8-OH-DPAT displacement, HEK293 membranes
# T2 construct: expressed in transfected cells
# T2 sequence (P08908 1-422): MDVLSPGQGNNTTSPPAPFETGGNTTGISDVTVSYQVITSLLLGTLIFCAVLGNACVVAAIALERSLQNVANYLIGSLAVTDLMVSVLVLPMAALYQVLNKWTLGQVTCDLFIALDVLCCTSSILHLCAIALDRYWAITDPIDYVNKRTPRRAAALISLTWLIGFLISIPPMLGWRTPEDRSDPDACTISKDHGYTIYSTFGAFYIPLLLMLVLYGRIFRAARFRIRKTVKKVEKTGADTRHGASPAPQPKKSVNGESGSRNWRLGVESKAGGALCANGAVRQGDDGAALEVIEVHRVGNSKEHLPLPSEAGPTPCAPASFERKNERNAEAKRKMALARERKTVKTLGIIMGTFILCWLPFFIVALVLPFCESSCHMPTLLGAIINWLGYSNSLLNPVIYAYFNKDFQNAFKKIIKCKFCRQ
# [5] = target: T3, human 5-HT7b receptor (Homo sapiens, UniProt P34969); assay: GPCR radioligand binding assay, [3H]-5-CT displacement, HEK293 membranes
# T3 construct: expressed in transfected cells
# T3 sequence (P34969 1-432): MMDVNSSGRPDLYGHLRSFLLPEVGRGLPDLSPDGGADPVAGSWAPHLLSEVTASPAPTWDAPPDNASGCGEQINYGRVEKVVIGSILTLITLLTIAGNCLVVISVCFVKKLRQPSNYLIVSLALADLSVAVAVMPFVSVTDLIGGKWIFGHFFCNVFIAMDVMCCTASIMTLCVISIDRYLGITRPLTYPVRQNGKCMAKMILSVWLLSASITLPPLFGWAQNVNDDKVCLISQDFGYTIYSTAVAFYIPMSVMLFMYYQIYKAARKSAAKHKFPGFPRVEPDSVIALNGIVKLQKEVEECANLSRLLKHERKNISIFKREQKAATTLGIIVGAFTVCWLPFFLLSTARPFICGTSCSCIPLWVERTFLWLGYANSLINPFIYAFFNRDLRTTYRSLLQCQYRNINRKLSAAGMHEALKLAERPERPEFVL
# [6] = target: T4, human thrombin (Homo sapiens, UniProt P00734); assay: Protease inhibitory assay, chromogenic substrate S-2238; assay type: biochemical; details: plate layout, label = plate position; Cheng-Prusoff, Km 2.6 µM; read-out: Thrombin Ki
# T4 construct: human thrombin; purchased Sigma-Aldrich
# [7] = target: T5, human 5-HT6 receptor (Homo sapiens, UniProt P50406); assay: GPCR radioligand binding assay, [3H]-LSD displacement, HEK293 membranes
# T5 construct: expressed in transfected cells
# T5 sequence (P50406 whole entry): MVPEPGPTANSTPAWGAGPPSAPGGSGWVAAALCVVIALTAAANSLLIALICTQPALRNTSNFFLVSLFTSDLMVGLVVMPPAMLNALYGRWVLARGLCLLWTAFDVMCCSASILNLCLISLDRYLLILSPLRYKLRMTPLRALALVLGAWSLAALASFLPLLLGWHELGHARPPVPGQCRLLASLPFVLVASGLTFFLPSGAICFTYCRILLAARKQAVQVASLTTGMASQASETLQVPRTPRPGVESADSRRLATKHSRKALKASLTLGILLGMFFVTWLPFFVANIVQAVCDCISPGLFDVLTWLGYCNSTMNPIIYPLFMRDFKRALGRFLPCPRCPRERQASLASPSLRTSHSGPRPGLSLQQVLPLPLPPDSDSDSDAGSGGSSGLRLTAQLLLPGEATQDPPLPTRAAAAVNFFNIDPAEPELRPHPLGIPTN
# [8] = tested on: SARS-CoV-2; assay: microbe, parasite or virus in culture; assay type: cell-based; details: for EC50: Vero E6 cells, 48 h post infection, read-out: EC50, blocking SARS-CoV-2 replication; for antiviral activity in the cellular assay (in words): infected Vero E6 cells
# [9] = target: T6, SARS-CoV-2 NSP3 macrodomain (Severe acute respiratory syndrome coronavirus 2, UniProt P0DTD1); assay: NSP3 macrodomain HTRF assay, displacement of ADP-ribose-conjugated biotin peptide; assay type: binding; details: HTRF assay, up to 5 mM concentration
# [10] = target: T6, SARS-CoV-2 NSP3 macrodomain; assay: X-ray fragment screening (XChem, crystal soaking); assay type: binding
compound,measurement,setting,value
CC1CCc2sc(C(=O)O)cc2C1 (stereo not drawn) [SX045],"normalized viability (0 = 0 % viability, 1 = 100 % viability)",[1]; concentration 2.18 [log,1.039 and 0.9762 and 0.9421
same,"normalized viability (0 = 0 % viability, 1 = 100 % viability)",[1]; concentration 2.66 [log,1.004 and 0.9844 and 0.9162
same,"normalized viability (0 = 0 % viability, 1 = 100 % viability)",[1]; concentration 3.14 [log,0.9835 and 0.9812 and 0.9002
same,"normalized viability (0 = 0 % viability, 1 = 100 % viability)",[1]; concentration 3.61 [log,0.9836 and 0.9626 and 0.8884
same,"normalized viability (0 = 0 % viability, 1 = 100 % viability)",[1]; concentration 4.09 [log,0.9563 and 0.9463 and 0.9164
same,"normalized viability (0 = 0 % viability, 1 = 100 % viability)",[1]; concentration 4.57 [log,0.8812 and 0.9087 and 0.8366
same,"normalized viability (0 = 0 % viability, 1 = 100 % viability)",[1]; concentration 5.05 [log,0.7992 and 0.5481 and 0.7667
same,"normalized viability (0 = 0 % viability, 1 = 100 % viability)",[1]; concentration 5.52 [log,0.5003 and 0.4827 and 0.2594
same,"normalized viability (0 = 0 % viability, 1 = 100 % viability)",[1]; concentration 6 [log,0.05284 and 0.001062 and 0.1076
same,IC50 cell viability / anti-proliferative EC50,"[1]; MOLM-13 cells, 5 days after treatment",333 µM
same,IC50,[2]; chemiluminescence-based enzymatic assay,300 µM
same,SETD2 signal normalised to positive control and internally to compound,[2]; fragment concentration 4.4 [log,0.78 and 0.88
same,SETD2 signal normalised to positive control and internally to compound,[2]; fragment concentration 5 [log,0.71 and 0.90
same,SETD2 signal normalised to positive control and internally to compound,[2]; fragment concentration 5.3 [log,0.89 and 0.66
same,SETD2 signal normalised to positive control and internally to compound,[2]; fragment concentration 5.6 [log,0.20 and 0.33
same,SETD2 signal normalised to positive control and internally to compound,[2]; fragment concentration 5.9 [log,0.05 and 0.21
same,"normalized viability (0 = 0 % viability, 1 = 100 % viability)",[3]; concentration 2.18 [log,0.9962 and 1.163 and 0.9666
same,"normalized viability (0 = 0 % viability, 1 = 100 % viability)",[3]; concentration 2.66 [log,0.9943 and 0.9504 and 0.9572
same,"normalized viability (0 = 0 % viability, 1 = 100 % viability)",[3]; concentration 3.14 [log,0.9413 and 0.941 and 0.9817
same,"normalized viability (0 = 0 % viability, 1 = 100 % viability)",[3]; concentration 3.61 [log,0.7873 and 0.9285 and 0.9554
same,"normalized viability (0 = 0 % viability, 1 = 100 % viability)",[3]; concentration 4.09 [log,0.7566 and 0.9251 and 0.9854
same,"normalized viability (0 = 0 % viability, 1 = 100 % viability)",[3]; concentration 4.57 [log,0.732 and 0.9248 and 0.8741
same,"normalized viability (0 = 0 % viability, 1 = 100 % viability)",[3]; concentration 5.05 [log,0.7081 and 0.7223 and 0.7408
same,"normalized viability (0 = 0 % viability, 1 = 100 % viability)",[3]; concentration 5.52 [log,0.4531 and 0.4099 and 0.4328
same,"normalized viability (0 = 0 % viability, 1 = 100 % viability)",[3]; concentration 6 [log,0.0008148 and 0.0004041 and 0.01018
same,IC50 cell viability / anti-proliferative EC50,"[3]; MV4-11 cells, 5 days after treatment",400 µM
same,inhibition at 10 µM,"[4]; 10 µM, read-out: 5-HT1A % Inhibition by plate position",0%
same,inhibition at 10 µM,"[4]; 5-HT1A, average of exp_1 and exp_2, read-out: %inh 5-HT1A average",-1%
same,inhibition at 10 µM,"[4]; 5-HT1A, average, values below 0 and above 100% were set as 0 and 100, read-out: %inh 5-HT1A corrected*",0%
same,inhibition at 10 µM,"[4]; 5-HT1A, replicate exp_1, read-out: %inh 5-HT1A exp_1",-0.0944%
same,inhibition at 10 µM,"[4]; 5-HT1A, replicate exp_2, read-out: %inh 5-HT1A exp_2",-2%
same,inhibition at 10 µM,"[5]; 10 µM, read-out: 5-HT7 % Inhibition by plate position",4.44%
same,inhibition at 10 µM,"[5]; 5-HT7, average of exp_1 and exp_2, read-out: %inh 5-HT7 average",4.44%
same,inhibition at 10 µM,"[5]; 5-HT7, average, values below 0 and above 100% were set as 0 and 100, read-out: %inh 5-HT7 corrected*",4.44%
same,inhibition at 10 µM,"[5]; 5-HT7, replicate exp_1, read-out: %inh 5-HT7 exp_1",-4.73%
same,inhibition at 10 µM,"[5]; 5-HT7, replicate exp_2, read-out: %inh 5-HT7 exp_2",14%
same,Ki,[6],65 µM
same,inhibition at 10 µM,"[7]; 10 µM, read-out: 5-HT6 % Inhibition by plate position",45%
same,inhibition at 10 µM,"[7]; 5-HT6, average of exp_1 and exp_2, read-out: %inh 5-HT6 average",45%
same,inhibition at 10 µM,"[7]; 5-HT6, average, values below 0 and above 100% were set as 0 and 100, read-out: %inh 5-HT6 corrected*",45%
same,inhibition at 10 µM,"[7]; 5-HT6, replicate exp_1, read-out: %inh 5-HT6 exp_1",52%
same,inhibition at 10 µM,"[7]; 5-HT6, replicate exp_2, read-out: %inh 5-HT6 exp_2",38%
CC1C(=O)NC(=O)N1c1ccc(Cl)cc1 (stereo not drawn) [SX051],Inhibition (%) of viral copy numbers,"[8]; 10 uM, replicates",0% and 9.716% and 1.026%
same,viral copy numbers normalized to the control (untreated infected cells),"[8]; 10 uM, replicates",2.076 and 0.9028 and 0.9897
same,Inhibition (%) of viral copy numbers,"[8]; 100 uM, replicates",32.89% and 37.84%
same,viral copy numbers normalized to the control (untreated infected cells),"[8]; 100 uM, replicates",0.7145 and 0.6711 and 0.6216
same,Inhibition (%) of viral copy numbers,"[8]; 250 uM, replicates",83.75% and 96.5% and 61.73%
same,viral copy numbers normalized to the control (untreated infected cells),"[8]; 250 uM, replicates",0.1625 and 0.03502 and 0.3827
same,Inhibition (%) of viral copy numbers,"[8]; 500 uM, replicates",86.97% and 88.23%
same,viral copy numbers normalized to the control (untreated infected cells),"[8]; 500 uM, replicates",0.2487 and 0.1303 and 0.1177
same,Inhibition (%) of viral copy numbers,"[8]; 750 uM, replicates",96.17% and 94.15%
same,viral copy numbers normalized to the control (untreated infected cells),"[8]; 750 uM, replicates",0.05523 and 0.03827 and 0.05848
same,Inhibition (%) of viral copy numbers,"[8]; 1000 uM, replicates",100% and 99.81%
same,viral copy numbers normalized to the control (untreated infected cells),"[8]; 1000 uM, replicates",0.003839 and 0 and 0.001919
same,inhibition at 100 µM,"[8]; Severe acute respiratory syndrome coronavirus 2, Vero C1008, 100 uM, replicates, read-out: Inhibition (%) of viral copy numbers",28.5%
same,inhibition at 500 µM,"[8]; Severe acute respiratory syndrome coronavirus 2, Vero C1008, 500 uM, replicates, read-out: Inhibition (%) of viral copy numbers",75.1%
same,inhibition at 750 µM,"[8]; Severe acute respiratory syndrome coronavirus 2, Vero C1008, 750 uM, replicates, read-out: Inhibition (%) of viral copy numbers",94.5%
same,inhibition at 1000 µM,"[8]; Severe acute respiratory syndrome coronavirus 2, Vero C1008, 1000 uM, replicates, read-out: Inhibition (%) of viral copy numbers",99.6%
same,EC50,"[8]; Severe acute respiratory syndrome coronavirus 2, Vero C1008, 48 h",136 µM
same,EC50,[8],136 µM
same,antiviral activity in the cellular assay (in words),[8],high micromolar range; also recorded: Significant antiviral activities
same,activity in the NSP3 enzyme assay (in words),[9],no activity
same,"X-ray screen result, binding site",[10],identified in the active site
Clc1ccc2nnnn2n1 [SX054],antiviral activity in the cellular assay (in words),[8],inactive in cells
same,activity in the NSP3 enzyme assay (in words),[9],no activity
same,"X-ray screen result, binding site",[10],identified in the active site
